# From patent publication US12377069B2, “Compounds, compositions, methods of using, and methods for preparing compounds” (UNIVERSITY OF LOUISVILLE RESEARCH FOUNDATION, INC., priority 2018, dated 2025)
# Tests used:
# [1] = Stability at gastric pH and with digestive enzymes; type: in vitro ADME; conditions: pH 2.0; enzymes 100 U/ml, 12 h, 37° C.; 0.2 mg/ml
# Procedure: FIG. 1: UAS03 is a potent anti-inflammatory structural analogue of UroA and induces tight junction proteins. (A) Chemical structures of UroA, UAS03. UroA/UAS03 stability was examined in the presence of gastric pH 2.0 and digestive enzymes. UroA and UAS03 (0.2 mg/ml) were incubated with digestive enzymes (esterases and proteases, 100 U/ml) for 12 h at 37° C. and compound levels were quantified. (B) BMDMs were stimulated with LPS (50 ng/ml) without or with UroA (blue line)/UAS03 (purple line) (0.1, 1, 10, 25 and 50 μM) for 6 hours. IL-6 and TNF-α levels in supernatants were measured. (C) C57BL/6 mice (n=3-4) were pretreated with UroA (20 mg/kg) and UAS03 (20 mg/kg). After 4 hours, LPS (2 mg/kg) was injected intraperitoneally. Post 4 h of LPS administration, serum levels of IL-6 and TNF-α was measured. […] (G) The fold changes in mRNA levels of claudin 4 (Cldn4), occludin (Ocln) and Zona occludens 1 (ZO1) in HT29 cells were determined by RT PCR method. (H) UroA/UAS03 induced protein expression of Cldn4, Ocln and ZO1 in HT29 cells were determined by immunoblots and quantified by Image J software. […] The green intensity (n=15-20 cell membrane regions) was measured. […] The protein lysates were prepared from colon scrapes and subjected to immunoblots and detected the expression of the (J) Nrf2, HO1, Cldn4 and (K) AhR using appropriate antibodies as described in methods. […]
# C57BL/6 mice = experiment: Chronic low dose alcohol model; type: in vivo, mouse; conditions: 20 mg/kg orally 2 h prior to EtOH 3 g/kg twice daily, 5 days
# Procedure: C57BL/6 mice (10 wk old age) were used in low dose chronic ALD models. Mice were treated with EtOH (3 g/kg) daily twice orally for 5 days at 3 g/kg, UroA (20 mg/kg) was given orally 2 h prior to EtOH treatment. Mice were euthanized on day 6 and analyzed the indicated parameters. Error bars, ±SEM. Statistics were performed using 2 way ANOVA multiple comparisons. * p<0.05, ** p<0.01, *** p<0.001.
# C57BL/6 mice (n=5 per group) were treated with EtOH (3 g/kg) twice daily orally for 5 days. UroA (20 mg/kg) was given orally 2 h prior to EtOH treatment. We evaluated gut permeability and inflammation parameters both in serum and liver (FIG. 17).
Structure (SMILES),stability at gastric pH and in the presence of gastric enzymes (esterases and proteases) [1],chronic low dose alcohol induced gut barrier dysfunction and inflammation (C57BL/6 mice)
"Oc1ccc2c(c1)COc1cc(O)ccc1-2 [UAS03, 6H-benzo[c]chromene-3,8-diol]",stable,
"O=c1oc2cc(O)ccc2c2ccc(O)cc12 [UroA, 3,8-dihydroxy-6H-dibenzo[b,d]pyran-6-one]",,protects against
